Measurements: paper PMC5065108 (Molecular cancer therapeutics, 2016)

What was measured:
p210 BCR-ABL (wild type) = p210 BCR-ABL (wild type) (Homo sapiens, UniProt P00519); test: Western blot of phospho-c-ABL; assay type: cell-based
[1] = target: p210 BCR-ABL T315I (p210^T315I) (Homo sapiens, UniProt P00519, T315I); test: Western blot of phospho-c-ABL; assay type: cell-based

Cc1cnc(Nc2ccc(N3CCN(C)CC3)cc2)nc1Nc1cccc(S(=O)(=O)NC(C)(C)C)c1 [TG101209]
IC50 (p210 BCR-ABL (wild type)): 2.5 µM
IC50 [1]: 17.5 µM
